For assay [1], the target named is T1, human RORγt (Ligand Binding Domain) (Homo sapiens, UniProt P51449).
T1 construct: purchased Crelux (Planegg, Germany) batch no PC5032-1
T1 sequence (P51449 269-508 limits assumed): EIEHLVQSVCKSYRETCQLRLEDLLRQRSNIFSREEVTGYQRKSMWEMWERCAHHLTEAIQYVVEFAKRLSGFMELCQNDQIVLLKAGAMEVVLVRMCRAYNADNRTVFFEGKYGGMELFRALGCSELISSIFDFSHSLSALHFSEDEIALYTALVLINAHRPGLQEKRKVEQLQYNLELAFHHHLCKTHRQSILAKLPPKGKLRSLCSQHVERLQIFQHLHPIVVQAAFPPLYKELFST
The assay is described as follows: Fluorescence Polarization (FP) Assay. The note with it: Fluorescence Polarization (FP) Assay; values given as upper bounds of activity ranges; read-out: FP activity range. Put shortly:
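In vitro FP binding assay monitoring ligand binding within the ligand binding pocket. Probe is a TAMRA-labelled RORγt ligand (MW 910 g/mole); DMSO served as negative control.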
Background: Fluorescence polarisation rises when a labelled molecule tumbles more slowly, as on binding a larger partner.

Assay [2] has as its target T2, yeast Gal4-DNA binding domain fused to the ligand binding domain of human RORγ (Homo sapiens, UniProt P51449).
T2 construct: host or cells: HEK293t
T2 sequence (P51449 269-508 limits assumed): T1 sequence (P51449 269-508 limits assumed)
As to the kind of experiment: RORγ Reporter Assay (Gal4). In kind it is cell-based. The note with it: values given as lower bounds of ranges; for Gal4 activity range @ 0.1 μM (% inhibition): RORγ Reporter Assay (Gal4) at 0.1 μM; for Gal4 activity range @ 1 μM (% inhibition): RORγ Reporter Assay (Gal4) at 1 μM. A digest of the protocol: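 HEK293t reporter cells expressing the hybrid, with Gal4-UAS-driven firefly luciferase, treated in triplicate with compound at 1,000 nM and 100 nM (0.1% DMSO) in medium with 10% charcoal-stripped FBS for 24 h at 37 °C. Luminescence read; percent reduction of RLU calculated relative to vehicle.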
A general note: A reporter such as luciferase makes a cellular process visible.

Consider 16 compounds from patent publication US10689383B2, “Optionally fused heterocyclyl-substituted derivatives of pyrimidine useful for the treatment of inflammatory, metabolic, oncologic and autoimmune diseases” (NUEVOLUTION A/S, priority 2014, dated 2020).

SMILES strings stand for the structures.

In the case of `O=C(O)Cc1ccc(CNc2ncnc(N3CCC[C@@H]3c3ccc(C(F)(F)F)cc3)c2F)s1` [Example 207, 2-[5-[[[5-fluoro-6-[(2R)-2-[4-(trifluoromethyl)phenyl]pyrrolidin-1-yl]pyrimidin-4-yl]amino]methyl]-2-thienyl]acetic acid], in assay [1], the IC50 is under 500 nM. Further, in assay [2], the “Gal4 activity range @ 0.1 μM (% inhibition)” value is over 20 % inhibition and the “Gal4 activity range @ 1 μM (% inhibition)” value was over 80 % inhibition.

As to `Fc1c(NCC2CCOCC2)ncnc1N1CCC[C@@H]1c1ccc(C(F)(F)F)cc1` [Example 208, 5-fluoro-N-(tetrahydropyran-4-ylmethyl)-6-[(2R)-2-[4-(trifluoromethyl)phenyl]pyrrolidin-1-yl]pyrimidin-4-amine], the IC50 in assay [1] is under 500 nM. In addition, in assay [2], the “Gal4 activity range @ 0.1 μM (% inhibition)” value is on record as over 50 % inhibition and the “Gal4 activity range @ 1 μM (% inhibition)” value was over 80 % inhibition.

For the compound `Cc1ccc(CNc2ncnc(N3CCCC3(C)c3ccc(C(F)(F)F)cc3)c2F)cn1` (centres unmarked) [Example 209, 5-fluoro-N-[(6-methyl-3-pyridyl)methyl]-6-[2-methyl-2-[4-(trifluoromethyl)phenyl]pyrrolidin-1-yl]pyrimidin-4-amine], the IC50 in assay [1] was under 1000 nM. For the same compound, in assay [2], the “Gal4 activity range @ 0.1 μM (% inhibition)” value is reported as over 20 % inhibition and the “Gal4 activity range @ 1 μM (% inhibition)” value is over 50 % inhibition.

`Cc1ccc(CNc2ncnc(N3CCC[C@@H]3c3ccc(C(F)(F)F)cc3F)c2F)cn1` [Example 210, 5-fluoro-6-[(2R)-2-[2-fluoro-4-(trifluoromethyl)phenyl]pyrrolidin-1-yl]-N-[(6-methyl-3-pyridyl)methyl]pyrimidin-4-amine]: in assay [1], the IC50 is under 1000 nM. In addition, in assay [2], the “Gal4 activity range @ 0.1 μM (% inhibition)” value is listed as over 50 % inhibition and the “Gal4 activity range @ 1 μM (% inhibition)” value is reported as over 80 % inhibition.

In the case of `Cc1ccc(CNc2ncnc(N3CC(C)CC3c3ccc(C(F)(F)F)cc3)c2F)cn1` (centres unmarked) [Example 211, 5-fluoro-N-[(6-methyl-3-pyridyl)methyl]-6-[4-methyl-2-[4-(trifluoromethyl)phenyl]pyrrolidin-1-yl]pyrimidin-4-amine], the IC50 in assay [1] is under 1000 nM. Further, in assay [2], the “Gal4 activity range @ 0.1 μM (% inhibition)” value is listed as over 0 % inhibition and the “Gal4 activity range @ 1 μM (% inhibition)” value is listed as over 50 % inhibition.

As for `OC1(CNc2ncnc(N3CCC[C@@H]3c3ccc(C(F)(F)F)cc3)c2F)CCOC1` (stereo partly drawn) [Example 220, 3-[[[5-fluoro-6-[(2R)-2-[4-(trifluoromethyl)phenyl]pyrrolidin-1-yl]pyrimidin-4-yl]amino]methyl]tetrahydrofuran-3-ol], the IC50 in assay [1] was under 500 nM. In assay [2], the “Gal4 activity range @ 0.1 μM (% inhibition)” value is over 20 % inhibition and the “Gal4 activity range @ 1 μM (% inhibition)” value is listed as over 80 % inhibition.

As to `OCCC1(CNc2ncnc(N3CCC[C@@H]3c3ccc(C(F)(F)F)cc3)c2F)CCOCC1` [Example 221, 2-[4-[[[5-fluoro-6-[(2R)-2-[4-(trifluoromethyl)phenyl]pyrrolidin-1-yl]pyrimidin-4-yl]amino]methyl]tetrahydropyran-4-yl]ethanol], in assay [1], the IC50 was under 500 nM. In addition, in assay [2], the “Gal4 activity range @ 0.1 μM (% inhibition)” value was over 50 % inhibition and the “Gal4 activity range @ 1 μM (% inhibition)” value is listed as over 80 % inhibition.

For the compound `O=S1(=O)CCC(CNc2ncnc(N3CCC[C@@H]3c3ccc(C(F)(F)F)cc3)c2F)CC1` [Example 222, N-[(1,1-dioxothian-4-yl)methyl]-5-fluoro-6-[(2R)-2-[4-(trifluoromethyl)phenyl]pyrrolidin-1-yl]pyrimidin-4-amine], the IC50 in assay [1] is under 2000 nM. Also, in assay [2], the “Gal4 activity range @ 0.1 μM (% inhibition)” value is given as over 20 % inhibition and the “Gal4 activity range @ 1 μM (% inhibition)” value was over 80 % inhibition.

For `O=S1(=O)CCC(O)(CNc2ncnc(N3CCC[C@@H]3c3ccc(C(F)(F)F)cc3)c2F)CC1` [Example 223, 4-[[[5-fluoro-6-[(2R)-2-[4-(trifluoromethyl)phenyl]pyrrolidin-1-yl]pyrimidin-4-yl]amino]methyl]-1,1-dioxo-thian-4-ol], the IC50 in assay [1] was under 500 nM. Further, in assay [2], the “Gal4 activity range @ 0.1 μM (% inhibition)” value is on record as over 50 % inhibition and the “Gal4 activity range @ 1 μM (% inhibition)” value is over 80 % inhibition.

On to `O=S(=O)(NC1CC1)c1ccc(CNc2ncnc(N3CCC[C@@H]3c3ccc(C(F)(F)F)cc3)c2F)cc1` [Example 224, N-cyclopropyl-4-[[[5-fluoro-6-[(2R)-2-[4-(trifluoromethyl)phenyl]pyrrolidin-1-yl]pyrimidin-4-yl]amino]methyl]benzenesulfonamide], for which the IC50 in assay [1] is under 500 nM. In assay [2], the “Gal4 activity range @ 0.1 μM (% inhibition)” value is listed as over 80 % inhibition and the “Gal4 activity range @ 1 μM (% inhibition)” value is recorded as over 80 % inhibition.

On to `OCC1CCC(CNc2ncnc(N3CCC[C@@H]3c3ccc(C(F)(F)F)cc3)c2F)CC1` (stereo partly drawn) [Example 225, [4-[[[5-fluoro-6-[(2R)-2-[4-(trifluoromethyl)phenyl]pyrrolidin-1-yl]pyrimidin-4-yl]amino]methyl]cyclohexyl] methanol], for which, in assay [1], the IC50 was under 500 nM. In addition, in assay [2], the “Gal4 activity range @ 0.1 μM (% inhibition)” value is listed as over 80 % inhibition and the “Gal4 activity range @ 1 μM (% inhibition)” value is over 80 % inhibition.

Take `NC(=O)c1ccc(CNc2ncnc(N3CCC[C@@H]3c3ccc(C(F)(F)F)cc3)c2F)cc1` [Example 226, 4-[[[5-fluoro-6-[(2R)-2-[4-(trifluoromethyl)phenyl]pyrrolidin-1-yl]pyrimidin-4-yl]amino]methyl]benzamide]: in assay [1], the IC50 is under 10000 nM. In assay [2], the “Gal4 activity range @ 1 μM (% inhibition)” value is given as over 50 % inhibition.

As for `OCc1ccc(CNc2ncnc(N3CCC[C@@H]3c3ccc(C(F)(F)F)cc3)c2F)cc1` [Example 227, [4-[[[5-fluoro-6-[(2R)-2-[4-(trifluoromethyl)phenyl]pyrrolidin-1-yl]pyrimidin-4-yl]amino]methyl]phenyl]methanol], the IC50 in assay [1] was under 500 nM. For the same compound, in assay [2], the “Gal4 activity range @ 0.1 μM (% inhibition)” value was over 80 % inhibition and the “Gal4 activity range @ 1 μM (% inhibition)” value is recorded as over 80 % inhibition.

For the compound `OCC1(CNc2ncnc(N3CCC[C@@H]3c3ccc(C(F)(F)F)cc3)c2F)COC1` [Example 228, [3-[[[5-fluoro-6-[(2R)-2-[4-(trifluoromethyl)phenyl]pyrrolidin-1-yl]pyrimidin-4-yl]amino]methyl]oxetan-3-yl]methano1], the IC50 in assay [1] was under 500 nM. For the same compound, in assay [2], the “Gal4 activity range @ 0.1 μM (% inhibition)” value is reported as over 20 % inhibition and the “Gal4 activity range @ 1 μM (% inhibition)” value is recorded as over 80 % inhibition.

For the compound `CC1(c2ccc(C(F)(F)F)cc2)CCCN1c1ncnc(NCc2ccc(CC(N)=O)cc2)c1F` (centres unmarked) [Example 229, 2-[4-[[[5-fluoro-6-[2-methyl-2-[4-(trifluoromethyl)phenyl]pyrrolidin-1-yl]pyrimidin-4-yl]amino]methyl]phenyl]acetamide], in assay [1], the IC50 was under 500 nM. Also, in assay [2], the “Gal4 activity range @ 0.1 μM (% inhibition)” value is on record as over 50 % inhibition and the “Gal4 activity range @ 1 μM (% inhibition)” value is given as over 80 % inhibition.

As to `NC(=O)Cc1ccc(CNc2ncnc(N3CCOC[C@@H]3c3ccc(OC(F)(F)F)cc3)c2F)cc1` [Example 230, 2-[4-[[[5-fluoro-6-[(3S)-3-[4-(trifluoromethoxy)phenyl]morpholin-4-yl]pyrimidin-4-yl]amino]methyl]phenyl]acetamide], the IC50 in assay [1] was under 500 nM. Besides, in assay [2], the “Gal4 activity range @ 0.1 μM (% inhibition)” value is listed as over 50 % inhibition and the “Gal4 activity range @ 1 μM (% inhibition)” value is over 80 % inhibition.
